Measured values as given in ChEMBL document CHEMBL1201861, “Genomics of Drug Sensitity in Cancer screening data, Wellcome Trust Sanger Institute”.
pIC50: −log10 of the molar value.

Columns and labels:
Assay in all cases: cells
[1] = tested on: NCI-H1395; type: functional, cell-based, Homo sapiens; settings: Homo sapiens, NCI-H1395;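 further: cell viability assay read-out quantifying reduced proliferation of human NCI-H1395 cells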
Description: SANGER: Inhibition of human NCI-H1395 cell growth in a cell viability assay.

[2] = tested on: SK-N-AS; type: functional, cell-based, Homo sapiens; settings: Homo sapiens, SK-N-AS;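 further: growth inhibition of human SK-N-AS cells, measured with a cell viability assay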
Description: SANGER: Inhibition of human SK-N-AS cell growth in a cell viability assay.

[3] = tested on: CCRF-CEM; type: functional, cell-based; settings: Homo sapiens;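 further: inhibition of CCRF-CEM cell growth, measured by a cell viability assay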
Description: SANGER: Inhibition of human CCRF-CEM cell growth in a cell viability assay.

[4] = tested on: A704; type: functional, cell-based, Homo sapiens; settings: Homo sapiens, A704;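 further: growth inhibition of human A704 cells, read out with a cell viability assay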
Description: SANGER: Inhibition of human A704 cell growth in a cell viability assay.

[5] = tested on: TGBC24TKB; type: functional, cell-based, Homo sapiens; settings: Homo sapiens, TGBC24TKB;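 further: growth inhibition of human TGBC24TKB cells, read out with a cell viability assay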
Description: SANGER: Inhibition of human TGBC24TKB cell growth in a cell viability assay.

[6] = tested on: LoVo; type: functional, cell-based; settings: Homo sapiens;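 further: growth inhibition of human LoVo cells, read out with a cell viability assay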
Description: SANGER: Inhibition of human LoVo cell growth in a cell viability assay.

[7] = tested on: CAL-33; type: functional, cell-based, Homo sapiens; settings: Homo sapiens, CAL-33;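 further: growth inhibition of CAL-33 cells, read out with a cell viability assay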
Description: SANGER: Inhibition of human CAL-33 cell growth in a cell viability assay.

[8] = tested on: NCI-H358; type: functional, cell-based, Homo sapiens; settings: Homo sapiens, NCI-H358;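 further: growth inhibition of NCI-H358 human cells, read out with a cell viability assay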
Description: SANGER: Inhibition of human NCI-H358 cell growth in a cell viability assay.

[9] = tested on: CP50-MEL-B; type: functional, cell-based, Homo sapiens; settings: Homo sapiens, CP50-MEL-B;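 further: growth inhibition of the human cell line, measured with a cell viability read-out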
Description: SANGER: Inhibition of human CP50-MEL-B cell growth in a cell viability assay.

[10] = tested on: Lu-65; type: functional, cell-based; settings: Homo sapiens;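 further: growth inhibition of Lu-65 cancer cells, read out by a cell viability assay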
Description: SANGER: Inhibition of human LU-65 cell growth in a cell viability assay.

[11] = tested on: LB1047-RCC; type: functional, cell-based, Homo sapiens; settings: Homo sapiens, LB1047-RCC;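 further: inhibition of cell growth, determined with a cell viability assay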
Description: SANGER: Inhibition of human LB1047-RCC cell growth in a cell viability assay.

[12] = tested on: CWR22R; type: functional, cell-based, Homo sapiens; settings: Homo sapiens, 22Rv1;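 further: growth inhibition of 22Rv1 cells, read out with a cell viability assay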
Description: SANGER: Inhibition of human 22RV1 cell growth in a cell viability assay.

[13] = tested on: NCI-H292; type: functional, cell-based, Homo sapiens; settings: Homo sapiens, NCI-H292;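 further: growth inhibition of NCI-H292 cells, read out with a cell viability assay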
Description: SANGER: Inhibition of human NCI-H292 cell growth in a cell viability assay.

[14] = tested on: ATN-1; type: functional, cell-based; settings: Homo sapiens;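 further: growth inhibition of human ATN-1 cells, read out with a cell viability assay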
Description: SANGER: Inhibition of human ATN-1 cell growth in a cell viability assay.

[15] = tested on: GP5d; type: functional, cell-based, Homo sapiens; settings: Homo sapiens, GP5d;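 further: growth inhibition of human GP5d cells, read out with a cell viability assay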
Description: SANGER: Inhibition of human GP5d cell growth in a cell viability assay.

[16] = tested on: NCI-H2087; type: functional, cell-based, Homo sapiens; settings: Homo sapiens, NCI-H2087;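 further: growth inhibition determined with a cell viability readout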
Description: SANGER: Inhibition of human NCI-H2087 cell growth in a cell viability assay.

[17] = tested on: D-392MG; type: functional, cell-based, Homo sapiens; settings: Homo sapiens, D-392MG
[18] = tested on: BE-13; type: functional, cell-based; settings: Homo sapiens;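 further: growth inhibition of human BE-13 cells, measured with a cell viability assay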
Description: SANGER: Inhibition of human BE-13 cell growth in a cell viability assay.

[19] = tested on: KG-1; type: functional, cell-based; settings: Homo sapiens;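 further: growth inhibition of KG-1 cells, read out by a cell viability assay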
Description: SANGER: Inhibition of human KG-1 cell growth in a cell viability assay.

[20] = tested on: NCI-H596; type: functional, cell-based, Homo sapiens; settings: Homo sapiens, NCI-H596;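 further: growth inhibition of NCI-H596 cells, read out with a cell viability assay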
Description: SANGER: Inhibition of human NCI-H596 cell growth in a cell viability assay.

[21] = tested on: HH; type: functional, cell-based; settings: Homo sapiens
Description: SANGER: Inhibition of human HH cell growth in a cell viability assay.

[22] = tested on: UACC-257; type: functional, cell-based, Homo sapiens; settings: Homo sapiens, UACC-257
Description: SANGER: Inhibition of human UACC-257 cell growth in a cell viability assay.

[23] = tested on: RKO; type: functional, cell-based, Homo sapiens; settings: Homo sapiens, RKO;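 further: growth inhibition of human RKO cells, read out with a cell viability assay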
Description: SANGER: Inhibition of human RKO cell growth in a cell viability assay.

[24] = tested on: COLO-679; type: functional, cell-based, Homo sapiens; settings: Homo sapiens, COLO-679
Description: SANGER: Inhibition of human COLO-679 cell growth in a cell viability assay.

[25] = tested on: SW872; type: functional, cell-based, Homo sapiens; settings: Homo sapiens, SW872;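 further: growth inhibition of SW872 cells, read out by a viability assay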
Description: SANGER: Inhibition of human SW872 cell growth in a cell viability assay.

[26] = tested on: SH-4; type: functional, cell-based, Homo sapiens; settings: Homo sapiens, SH-4;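 further: growth inhibition of SH-4 cells, read out with a cell viability assay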
Description: SANGER: Inhibition of human SH-4 cell growth in a cell viability assay.

[27] = tested on: IST-MES1; type: functional, cell-based, Homo sapiens; settings: Homo sapiens, IST-MES1;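 further: growth inhibition of IST-MES1 cells, measured with a cell viability assay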
Description: SANGER: Inhibition of human IST-MES1 cell growth in a cell viability assay.

[28] = tested on: NCI-H82; type: functional, cell-based; settings: Homo sapiens;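 further: growth inhibition of NCI-H82 cells, measured with a cell viability readout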
Description: SANGER: Inhibition of human NCI-H82 cell growth in a cell viability assay.

[29] = tested on: S-117; type: functional, cell-based, Homo sapiens; settings: Homo sapiens, S-117
Description: SANGER: Inhibition of human S-117 cell growth in a cell viability assay.

[30] = tested on: KYSE-270; type: functional, cell-based, Homo sapiens; settings: Homo sapiens, KYSE-270;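 further: cell growth inhibition measured with a viability assay in the human KYSE-270 line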
Description: SANGER: Inhibition of human KYSE-270 cell growth in a cell viability assay.

[31] = tested on: NKM-1; type: functional, cell-based; settings: Homo sapiens;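 further: growth inhibition of NKM-1 cells, read out with a cell viability assay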
Description: SANGER: Inhibition of human NKM-1 cell growth in a cell viability assay.

[32] = tested on: ESS-1; type: functional, cell-based, Homo sapiens; settings: Homo sapiens, ESS-1;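 further: growth inhibition of human ESS-1 cells, read out by a cell viability assay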
Description: SANGER: Inhibition of human ESS-1 cell growth in a cell viability assay.

[33] = tested on: OS-RC-2; type: functional, cell-based, Homo sapiens; settings: Homo sapiens, OS-RC-2;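 further: growth inhibition of human OS-RC-2 cells, measured by a cell viability assay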
Description: SANGER: Inhibition of human OS-RC-2 cell growth in a cell viability assay.

[34] = tested on: EKVX; type: functional, cell-based, Homo sapiens; settings: Homo sapiens, EKVX;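 further: growth inhibition of human EKVX cells, read out with a cell viability assay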
Description: SANGER: Inhibition of human EKVX cell growth in a cell viability assay.

[35] = tested on: RH-1; type: functional, cell-based, Homo sapiens; settings: Homo sapiens, RH-1;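 further: growth inhibition of human RH-1 cells, read out with a cell viability assay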
Description: SANGER: Inhibition of human RH-1 cell growth in a cell viability assay.

[36] = tested on: CAL-62; type: functional, cell-based, Homo sapiens; settings: Homo sapiens, CAL-62;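 further: growth inhibition of CAL-62 cells, read out with a cell viability assay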
Description: SANGER: Inhibition of human CAL-62 cell growth in a cell viability assay.

[37] = tested on: SiHa; type: functional, cell-based, Homo sapiens; settings: Homo sapiens, SiHa;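 further: Viability-based readout of growth inhibition in SiHa cells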
Description: SANGER: Inhibition of human SiHa cell growth in a cell viability assay.

[38] = tested on: C-33-A; type: functional, cell-based, Homo sapiens; settings: Homo sapiens, C-33-A;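 further: cell viability assay measuring growth inhibition of C-33-A cells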
Description: SANGER: Inhibition of human C-33-A cell growth in a cell viability assay.

[39] = tested on: KLE; type: functional, cell-based, Homo sapiens; settings: Homo sapiens, KLE;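 further: growth inhibition of human KLE cells, read out with a cell viability assay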
Description: SANGER: Inhibition of human KLE cell growth in a cell viability assay.

[40] = tested on: WM-115; type: functional, cell-based, Homo sapiens; settings: Homo sapiens, WM-115
Description: SANGER: Inhibition of human WM-115 cell growth in a cell viability assay.

[41] = tested on: NCI-H2347; type: functional, cell-based, Homo sapiens; settings: Homo sapiens, NCI-H2347;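 further: growth inhibition of the cell line, read out with a cell viability assay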
Description: SANGER: Inhibition of human NCI-H2347 cell growth in a cell viability assay.

[42] = tested on: SW1573; type: functional, cell-based, Homo sapiens; settings: Homo sapiens, SW1573;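 further: growth inhibition of SW1573 cells, read out with a cell viability assay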
Description: SANGER: Inhibition of human SW1573 cell growth in a cell viability assay.

[43] = tested on: MG-63; type: functional, cell-based, Homo sapiens; settings: Homo sapiens, MG-63;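 further: growth inhibition of human MG-63 cells, read out with a cell viability assay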
Description: SANGER: Inhibition of human MG-63 cell growth in a cell viability assay.

[44] = tested on: COR-L105; type: functional, cell-based, Homo sapiens; settings: Homo sapiens, COR-L105;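 further: cell growth inhibition determined with a viability assay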
Description: SANGER: Inhibition of human COR-L105 cell growth in a cell viability assay.

[45] = tested on: LAN-6; type: functional, cell-based, Homo sapiens; settings: Homo sapiens, LAN-6;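 further: growth inhibition of LAN-6 cells, determined with a cell viability assay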
Description: SANGER: Inhibition of human LAN-6 cell growth in a cell viability assay.

[46] = tested on: HCC1569; type: functional, cell-based, Homo sapiens; settings: Homo sapiens, HCC1569;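 further: growth inhibition of human HCC1569 cells, read out with a cell viability assay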
Description: SANGER: Inhibition of human HCC1569 cell growth in a cell viability assay.

[47] = tested on: no-11; type: functional, cell-based, Homo sapiens; settings: Homo sapiens;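 further: growth inhibition of human NO-11 cells, read out with a cell viability assay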
Description: SANGER: Inhibition of human no-11 cell growth in a cell viability assay.

[48] = tested on: A-431; type: functional, cell-based, Homo sapiens; settings: Homo sapiens, A-431;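 further: growth inhibition of A-431 cells, determined with a cell viability read-out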
Description: SANGER: Inhibition of human A431 cell growth in a cell viability assay.

[49] = tested on: EW-24; type: functional, cell-based; settings: Homo sapiens;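 further: human EW-24 cancer cell line, growth inhibition read out via a cell viability assay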
Description: SANGER: Inhibition of human EW-24 cell growth in a cell viability assay.

[50] = tested on: GCIY; type: functional, cell-based, Homo sapiens; settings: Homo sapiens, GCIY;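 further: growth inhibition of the human GCIY cell line, read out by a cell viability assay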
Description: SANGER: Inhibition of human GCIY cell growth in a cell viability assay.

[51] = tested on: ES7; type: functional, cell-based, Homo sapiens; settings: Homo sapiens, ES7;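 further: growth inhibition of cultured human ES7 cells, read out as cell viability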
Description: SANGER: Inhibition of human ES7 cell growth in a cell viability assay.

[52] = tested on: MDA-MB-415; type: functional, cell-based; settings: Homo sapiens

With `Cn1cc(C2=C(c3ccc(Cl)cc3Cl)C(=O)NC2=O)c2ccccc21` [SB-216763] the pIC50 [1] was < 5.00, the pIC50 [2] was < 5.00 and the pIC50 [3] was < 5.00. For the same compound, the pIC50 [4] was < 5.00, the pIC50 [5] was < 5.00 and the pIC50 [6] was < 5.00. The pIC50 [7] was < 5.00, the pIC50 [8] was < 5.00 and the pIC50 [9] was < 5.00. For the same compound, the pIC50 [10] was < 5.00, the pIC50 [11] was < 5.00 and the pIC50 [12] was < 5.00. For the same compound, the pIC50 [13] was < 5.00, the pIC50 [14] was < 5.00 and the pIC50 [15] was < 5.00. For the same compound, the pIC50 [16] was < 5.00, the pIC50 [17] was < 5.00 and the pIC50 [18] was < 5.00. The pIC50 [19] was < 5.00, the pIC50 [20] was < 5.00 and the pIC50 [21] was < 5.00. For the same compound, the pIC50 [22] was < 5.00, the pIC50 [23] was < 5.00 and the pIC50 [24] was < 5.00. The pIC50 [25] was < 5.00, the pIC50 [26] was < 5.00 and the pIC50 [27] was < 5.00. The pIC50 [28] was < 5.00, the pIC50 [29] was < 5.00 and the pIC50 [30] was < 5.00. The pIC50 [31] was < 5.00, the pIC50 [32] was 5.02 and the pIC50 [33] was < 5.00. The pIC50 [34] was < 5.00, the pIC50 [35] was < 5.00 and the pIC50 [36] was < 5.00. The pIC50 [37] was < 5.00, the pIC50 [38] was < 5.00 and the pIC50 [39] was < 5.00. The pIC50 [40] was < 5.00, the pIC50 [41] was < 5.00 and the pIC50 [42] was < 5.00. For the same compound, the pIC50 [43] was < 5.00, the pIC50 [44] was < 5.00 and the pIC50 [45] was < 5.00. For the same compound, the pIC50 [46] was < 5.00, the pIC50 [47] was < 5.00 and the pIC50 [48] was < 5.00. The pIC50 [49] was < 5.00, the pIC50 [50] was < 5.00 and the pIC50 [51] was < 5.00.

For `O=c1cc(-c2cccc3c2Sc2ccccc2S3)oc(N2CCOCC2)c1` [KU-55933], the pIC50 [52] was < 5.00, the pIC50 [1] was < 5.00 and the pIC50 [2] was < 5.00. For the same compound, the pIC50 [3] was < 5.00, the pIC50 [4] was < 5.00 and the pIC50 [5] was < 5.00. The pIC50 [6] was 5.16, the pIC50 [7] was < 5.00 and the pIC50 [8] was < 5.00. The pIC50 [9] was < 5.00, the pIC50 [11] was < 5.00 and the pIC50 [12] was < 5.00. The pIC50 [13] was < 5.00, the pIC50 [14] was < 5.00 and the pIC50 [15] was < 5.00. For the same compound, the pIC50 [16] was < 5.00, the pIC50 [17] was < 5.00 and the pIC50 [18] was < 5.00. The pIC50 [19] was < 5.00, the pIC50 [20] was < 5.00 and the pIC50 [21] was 5.08. The pIC50 [22] was < 5.00, the pIC50 [23] was < 5.00 and the pIC50 [24] was < 5.00. The pIC50 [25] was < 5.00, the pIC50 [26] was < 5.00 and the pIC50 [27] was < 5.00. The pIC50 [28] was < 5.00, the pIC50 [29] was < 5.00 and the pIC50 [30] was < 5.00. The pIC50 [31] was < 5.00, the pIC50 [32] was < 5.00 and the pIC50 [33] was < 5.00. For the same compound, the pIC50 [34] was < 5.00, the pIC50 [35] was < 5.00 and the pIC50 [36] was < 5.00. The pIC50 [37] was < 5.00, the pIC50 [38] was < 5.00 and the pIC50 [39] was < 5.00. The pIC50 [40] was < 5.00, the pIC50 [41] was < 5.00 and the pIC50 [42] was < 5.00. For the same compound, the pIC50 [43] was < 5.00, the pIC50 [44] was < 5.00 and the pIC50 [45] was < 5.00. The pIC50 [46] was < 5.00, the pIC50 [47] was < 5.00 and the pIC50 [48] was < 5.00. For the same compound, the pIC50 [50] was < 5.00 and the pIC50 [51] was < 5.00.

In the case of `CC(=O)O[C@@H]1[C@@H](OC(C)=O)[C@@H](O)[C@H](Oc2c(-c3ccc(O)cc3)oc3cc(O)cc(O)c3c2=O)O[C@H]1C`, the pIC50 [52] was < 5.00, the pIC50 [1] was < 5.00 and the pIC50 [2] was < 5.00. For the same compound, the pIC50 [3] was < 5.00, the pIC50 [4] was < 5.00 and the pIC50 [5] was < 5.00. For the same compound, the pIC50 [6] was < 5.00, the pIC50 [7] was < 5.00 and the pIC50 [8] was < 5.00. For the same compound, the pIC50 [9] was < 5.00, the pIC50 [10] was < 5.00 and the pIC50 [11] was < 5.00. The pIC50 [12] was < 5.00, the pIC50 [13] was < 5.00 and the pIC50 [14] was < 5.00. The pIC50 [15] was < 5.00, the pIC50 [16] was < 5.00 and the pIC50 [17] was < 5.00. For the same compound, the pIC50 [18] was < 5.00, the pIC50 [19] was < 5.00 and the pIC50 [20] was < 5.00. For the same compound, the pIC50 [21] was < 5.00, the pIC50 [22] was < 5.00 and the pIC50 [23] was < 5.00. For the same compound, the pIC50 [24] was < 5.00, the pIC50 [25] was < 5.00 and the pIC50 [26] was < 5.00. For the same compound, the pIC50 [27] was < 5.00, the pIC50 [28] was 5.30 and the pIC50 [29] was < 5.00. The pIC50 [30] was < 5.00, the pIC50 [31] was < 5.00 and the pIC50 [32] was < 5.00. The pIC50 [33] was < 5.00, the pIC50 [34] was < 5.00 and the pIC50 [35] was < 5.00. The pIC50 [36] was < 5.00, the pIC50 [38] was < 5.00 and the pIC50 [39] was < 5.00. The pIC50 [40] was < 5.00, the pIC50 [41] was < 5.00 and the pIC50 [42] was < 5.00. The pIC50 [43] was < 5.00, the pIC50 [44] was < 5.00 and the pIC50 [45] was < 5.00. The pIC50 [46] was < 5.00, the pIC50 [47] was < 5.00 and the pIC50 [48] was < 5.00. The pIC50 [50] was < 5.00 and the pIC50 [51] was < 5.00.
